Experimental data as given in US6335447B1, “Quinolonecarboxylic acid derivatives or salts thereof” (Toyama Chemical Co., Ltd., priority 1998, dated 2002).
Values after ≈ are worked out from the molar mass of the structure shown.

How the values were obtained:
[1] = system: Staphylococcus aureus (S. aureus F-1924); assay: MIC against Staphylococcus aureus, agar dilution; format: cell-based; conditions: Mueller Hinton agar, 37° C., 20 hours, read-out: MIC (lowest concentration which inhibited visible growth of the cells)
Method: According to the standard method of Japan Chemotherapy Society [CHEMOTHERAPY, Vol. 29, No. 1, p. 76-79 (1981)], Staphylococcus aureus (S. aureus F-1924) was cultivated in Mueller Hinton broth [manufactured by Difco] at 37° C. for 20 hours and the cell density was adjusted to 10^6 cells/plate (10^8 cells/ml). A loopful of the bacterial suspension was inoculated on Mueller Hinton agar medium [manufactured by Difco] and incubated at 37° C. for 20 hours. Whether or not the growth of cells occurred was observed and MIC (μg/ml) was defined as the lowest concentration which inhibited visible growth of the cells.

ddy male mice [2] = assay: Micronucleus test; format: in vivo; conditions: intraperitoneally at 500 mg/Kg
Method: According to the description in Dokusei Shiken Koza 12 (Chijinshokan, 1991), pages 147-153, micronucleus test was carried out using ddy male mice. As a result, the compounds (a), (c), (d) and (g) were negative when administered intraperitoneally at 500 mg/Kg.

ddy male mice [3] = assay: Acute toxicity; format: in vivo; conditions: three ddy male mice; intraperitoneally 500 mg/Kg
Method: Three ddy male mice were intraperitoneally administered with 500 mg/Kg of (a), (b), (d) or (g).

Compound: CC1CCc2c(N3CCC(O)CC3)c(F)cc3c(=O)c(C(=O)O)cn1c23 (racemic) [k, (±)-9-Fluoro-6,7-dihydro-8-(4-hydroxy-1-piperidinyl)-5-methyl-1-oxo-1-1H,5H-benzo[i,j]quinolizine-2-carboxylic acid, reference compound]
- MIC [1]: 1.56 µg/mL (≈ 4.33 µM)

Compound: Cc1cc(-c2ccc3c(=O)c(C(=O)O)cn(C4CC4)c3c2C)cc(C)n1 [a, 1-Cyclopropyl-7-(2,6-dimethyl-4-pyridyl)-8-methyl-4-oxo-1,4-dihydro-3-quinolinecarboxylic acid]
- Micronucleus test result (ddy male mice [2]): negative
- MIC [1]: 0.2 µg/mL (≈ 0.574 µM)
- Acute toxicity (death of animals) (ddy male mice [3]): In no case, the animals were dead

Compound: Cc1cc(-c2ccc3c(=O)c(C(=O)O)cn(C4CC4)c3c2C)cc(CO)n1 [b, 1-Cyclopropyl-7-(2-hydroxymethyl-6-methyl-4-pyridyl)-8-methyl-4-oxo-1,4-dihydro-3-quinolinecarboxylic acid]
- MIC [1]: 0.39 µg/mL (≈ 1.07 µM)
- Acute toxicity (death of animals) (ddy male mice [3]): In no case, the animals were dead

Compound: Cc1ccc(-c2ccc3c(=O)c(C(=O)O)cn(C4CC4)c3c2C)cn1 [c, 1-Cyclopropyl-7-(6-methyl-3-pyridyl)-8-methyl-4-oxo-1,4-dihydro-3-quinolinecarboxylic acid]
- Micronucleus test result (ddy male mice [2]): negative
- MIC [1]: 0.39 µg/mL (≈ 1.17 µM)

Compound: CNc1ncc(-c2ccc3c(=O)c(C(=O)O)cn(C4CC4)c3c2C)cc1C [d, 1-Cyclopropyl-8-methyl-7-[5-methyl-6-(methylamino)-3-pyridyl]-4-oxo-1,4-dihydro-3-quinolinecarboxylic acid]
- Micronucleus test result (ddy male mice [2]): negative
- MIC [1]: 0.2 µg/mL (≈ 0.55 µM)
- Acute toxicity (death of animals) (ddy male mice [3]): In no case, the animals were dead

Compound: Cc1cc(-c2ccc3c(=O)c(C(=O)O)cn(C4CC4)c3c2OC(F)F)cnc1N [e, 7-(6-Amino-5-methyl-3-pyridyl)-1-cyclopropyl-8-(difluoromethoxy)-4-oxo-1,4-dihydro-3-quinolinecarboxylic acid]
- MIC [1]: 0.78 µg/mL (≈ 1.94 µM)

Compound: COc1c(-c2cnc(N)c(C)c2)ccc2c(=O)c(C(=O)O)cn(C3CC3)c12 [f, 7-(6-Amino-5-methyl-3-pyridyl)-1-cyclopropyl-8-methoxy-4-oxo-1,4-dihydro-3-quinolinecarboxylic acid]
- MIC [1]: 0.39 µg/mL (≈ 1.07 µM)

Compound: Cc1cc(-c2ccc3c(=O)c(C(=O)O)cn(C4CC4)c3c2C)cnc1N [g, 7-(6-Amino-5-methyl-3-pyridyl)-1-cyclopropyl-8-methyl-4-oxo-1,4-dihydro-3-quinolinecarboxylic acid]
- Micronucleus test result (ddy male mice [2]): negative
- MIC [1]: 0.1 µg/mL (≈ 0.286 µM)
- Acute toxicity (death of animals) (ddy male mice [3]): In no case, the animals were dead

Compound: Cc1c(-c2ccc(N)nc2)ccc2c(=O)c(C(=O)O)cn(C3CC3)c12 [h, 7-(6-Amino-3-pyridyl)-1-cyclopropyl-8-methyl-4-oxo-1,4-dihydro-3-quinolinecarboxylic acid]
- MIC [1]: 0.1 µg/mL (≈ 0.298 µM)

Compound: Cc1cc(-c2cc(C)c3c(=O)c(C(=O)O)cn(C4CC4)c3c2C)cc(C)n1 [i, 1-Cyclopropyl-7-(2,6-dimethyl-4-pyridyl)-5,8-dimethyl-4-oxo-1,4-dihydro-3-quinolinecarboxylic acid]
- MIC [1]: 0.2 µg/mL (≈ 0.552 µM)

Compound: Cc1cc(-c2cc(N)c3c(=O)c(C(=O)O)cn(C4CC4)c3c2C)cnc1C [j, 5-Amino-1-cyclopropyl-7-(5,6-dimethyl-3-pyridyl)-8-methyl-4-oxo-1,4-dihydro-3-quinolinecarboxylic acid]
- MIC [1]: 0.39 µg/mL (≈ 1.07 µM)
